Tests used:
[1] = test system: neuroectodermal tumor cells
[2] = test system: neuroblastoma (IMR-32, IMR-5, AF8, SJ-N-KP); test: In vitro cytotoxicity assay, neuroblastoma cell lines; assay type: cell-based; details: Homo sapiens, 72 hours exposure, 0 to 100 μM, read-out: ED50 (half-maximal effective dose), cytotoxicity
From the text: (§2) tumors of neuroectodermic origin: neuroblastoma (IMR-32, IMR-5, AF8, SJ-N-KP), pPNET (TC32), Ewing's sarcoma (TC106), melanoma (Mel 23);

[3] = In vitro cytotoxicity assay, normal fibroblasts; assay type: cell-based; details: human, normal lung fibroblasts (MRC5), 72 hours exposure, 0 to 100 μM, read-out: ED50 (half-maximal effective dose), cytotoxicity
From the text: normal cells: human lung fibroblasts (MRC5).

Ewing's sarcoma (TC106) = test: In vitro cytotoxicity assay, Ewing's sarcoma cells; assay type: cell-based; details: Homo sapiens, 72 hours exposure, 0 to 100 μM, read-out: ED50 (half-maximal effective dose), cytotoxicity
From the text: as §2

[4] = test system: hemopoietic progenitors cells from bone marrow of healthy donors; test: Clonogenic test, CFU-GM from bone marrow; assay type: cell-based; details: Homo sapiens, 336 h, methyl cellulose, 1-100 μM, 14 days, read-out: ED50 for the growth of CFU-GM colonies
Description: (§1) Clonogenic tests have also been carried out on hemopoietic progenitors cells, obtained from bone marrow (BM ? ) of healthy donors and from cord blood (CB □), and on neuroblastoma cells (SJ-N-KP ▪). The cell have been grown in methyl cellulose with scalar doses of AE in concentrations between 1 and 100 μM for 14 days.

[5] = test system: hemopoietic progenitors cells from cord blood; test: Clonogenic test, CFU-GM from cord blood; assay type: cell-based; details: Homo sapiens, 336 h, methyl cellulose, 1-100 μM, 14 days, read-out: ED50 for the growth of CFU-GM colonies
Description: as §1

[6] = test system: acute lymphocytic leukemia lines (CEM, CEM VBL); test: In vitro cytotoxicity assay, leukemia lines; assay type: cell-based; details: Homo sapiens, 72 hours exposure, 0 to 100 μM, read-out: ED50 (half-maximal effective dose), cytotoxicity
From the text: tumors of different origin: T-cell leukemia (CEM) and T-cell leukemia vinblastine-resistant (CEM VBL), colon adenocarcinoma (LoVo 109) and colon adenocarcinoma doxorubicin-resistant (LoVo DX), cervix epithelioid carcinoma (HeLa);

[7] = Acute and chronic toxicity in Swiss mice; assay type: in vivo; details: i.p.
Description: In the first case assays on acute and chronic toxicity are carried out on Swiss mice (males aged 8-10 weeks) to show possible effects of general toxicity due to AE on weight, neurological and intestinal functions, and hematological parameters. The animals were treated with high doses by intraperitoneal route, between 30 mg/Kg/die and 50 mg/Kg/die, in one administration and with low doses, between 1 mg/Kg/die and 10 mg/Kg/die, for repeated dosages.
The animals were monitored to check possible neurological damages by means of periodically repeated behavioral tests, to check hematic toxicity by means of weekly hemochrome analyses, and to check intestinal toxicity by means of daily faeces analyses. Moreover, the animals have also been weighed twice a week during the whole test. At the end of the tests the animals have been killed and the autopsy has been conducted.

SMILES | cytotoxic effect [1] | EC50 [2] | EC50 at 72 h [3] | EC50 (Ewing's sarcoma (TC106)) | EC50 [4] | EC50 [5] | EC50 [6] | general toxicity (weight, neurological, intestinal, hematological) ([7]; 30-50 mg/Kg/die single or 1-10 mg/Kg/die repeated) | autopsy findings ([7]; at the end of the tests)
O=C1c2c(O)cccc2C(C2O[C@H](CO)[C@@H](O)[C@H](O)[C@H]2O)c2cc(CO)cc(O)c21 (stereo partly drawn) [glycosylated form of AE, 10-1,5anhydroglucosyl-1,8-dihydroxy-3-hydroxymethyl-9-anthrone] | no cytotoxic effect | – | – | – | – | – | – | – | –
O=C1c2cccc(O)c2C(=O)c2c(O)cc(CO)cc21 [AE, 1,8-dihydroxy-3-hydroxymethyl-9.10-anthracenedione] | – | 1 µM | 40 µM | 13 µM | 80 µM | 120 µM | 100 µM | No toxicity | not shown any damage to the main organs

— patent US6812255B2, “Use of aloe-emodin in the treatment of neuroectodermal tumors” (Universita Degli Studi Di Padova, priority 2002, dated 2004)
